{
  "source": "patent US12697326B2",
  "about": "“Methods of treating hepatic encephalopathy” (SALIX PHARMACEUTICALS, INC., priority 2008, dated 2026)",
  "system": "breakthrough HE episode in subjects with hepatic encephalopathy (HE)",
  "test": "Time to first breakthrough (overt) HE episode, first study, rifaximin vs placebo",
  "format": "in vivo, human",
  "details": "for Cumulative number of events / Number of events / Probability of no breakthrough overt HE (Kaplan-Meier event-free estimate): ITT, first breakthrough overt HE",
  "source_text": "An increase in the Conn score of greater than or equal to grade 2 was considered as a breakthrough HE episode.\nAn efficacy endpoint was the time to first breakthrough overt HE episode. A breakthrough overt HE episode was defined as an increase of Conn score to Grade ≥2 (e.g., 0) or 1 to ≥2) or an increase in Conn and asterixis score of 1 grade each for those subjects who entered the study with a Conn score of 0. Time to breakthrough overt HE episode was the duration from time of first dose of study drug to the first breakthrough overt HE episode. […] Subjects who terminated early for reasons other than breakthrough overt HE were contacted at 6 months from randomization to determine if subjects had experienced a breakthrough overt HE episode or other outcome (e.g., mortality status); and, if the subject had no breakthrough overt HE event prior to contact, he/she was censored at the time of contact. […] Subjects in the study had ≥2 episodes of overt HE equivalent to Conn score ≥2 within 6 months prior to screening (i.e., subjects had documented recurrent, overt HE). At the baseline assessment, subjects were in remission with a Conn score of 0 or 1. A breakthrough overt HE episode, as defined above, was a marked deterioration in neurological function.\nPresented herein are the results of the first study and second study. […] The primary efficacy endpoint was the time to breakthrough overt HE. Breakthrough overt HE was defined as an increase of Conn score to Grade ≥2 (e.g., 0 or 1 to ≥2) or an increase in Conn and asterixis score of 1 grade each for those subjects who entered the study with a Conn score of 0. Subjects discontinued from the study at the time of breakthrough overt HE episode. After participation in the first study, subjects had the option to enroll in the open-label, treatment-extension study (the second study).\nFIG. 1 illustrates Kaplan-Meier estimates of time to first breakthrough overt HE episode by treatment group in the ITT population. Table 18 presents Kaplan-Meier estimates of the proportions of subjects who experienced breakthrough overt HE over the course of the Treatment Period and results of statistical analyses. […] Subjects who terminated early for reasons other than breakthrough overt HE (eg, liver transplant, AE, subject request) were contacted at 6 months from date of randomization to determine if subjects had experienced a breakthrough overt HE episode or other outcome (e.g., mortality status). Subjects without breakthrough overt HE were censored at the time of contact or death, whichever was earlier.",
  "key": {"[1]": {"details": "breakthrough HE episode by prior lactulose use; 550 mg BID; N = 123; Days [0-28)"}, "[2]": {"details": "breakthrough HE episode by prior lactulose use; 550 mg BID; N = 123; Days [28-56)"}, "[3]": {"details": "breakthrough HE episode by prior lactulose use; 550 mg BID; N = 123; Days [56-84)"}, "[4]": {"details": "breakthrough HE episode by prior lactulose use; 550 mg BID; N = 123; Days [84-140)"}, "[5]": {"details": "breakthrough HE episode by prior lactulose use; 550 mg BID; N = 123; Days [140-168)"}, "[6]": {"details": "breakthrough HE episode by prior lactulose use, 550 mg BID, N = 127, Days >=168"}, "[7]": {"details": "breakthrough HE episode by prior lactulose use; 550 mg BID; N = 127; Days [0-28)"}, "[8]": {"details": "breakthrough HE episode by prior lactulose use, 550 mg BID, N = 127, Days [28-56]"}, "[9]": {"details": "breakthrough HE episode by prior lactulose use, 550 mg BID, N = 127, Days [56-84]"}, "[10]": {"details": "breakthrough HE episode by prior lactulose use; 550 mg BID; N = 127; Days [84-140)"}, "[11]": {"details": "breakthrough HE episode by prior lactulose use; 550 mg BID; N = 127; Days [140-168)"}, "[12]": {"details": "breakthrough HE episode, 550 mg BID, N = 140, Days >=168"}, "[13]": {"details": "breakthrough HE episode; 550 mg BID; N = 140; Days [0-28)"}, "[14]": {"details": "breakthrough HE episode; 550 mg BID; N = 140; Days [28-56)"}, "[15]": {"details": "breakthrough HE episode; 550 mg BID; N = 140; Days [56-84)"}, "[16]": {"details": "breakthrough HE episode; 550 mg BID; N = 140; Days [84-140)"}, "[17]": {"details": "breakthrough HE episode; 550 mg BID; N = 140; Days [140-168)"}, "[18]": {"details": "first study, N = 140, treatment interval 0 to <28 days"}, "[19]": {"details": "first study, N = 140, treatment interval 28 to 56 days"}, "[20]": {"details": "first study, N = 140, treatment interval 56 to <84 days"}, "[21]": {"details": "first study, N = 140, treatment interval 84 to <149 days"}, "[22]": {"details": "first study, N = 140, treatment interval 140 to <168 days"}, "[23]": {"details": "first study, N = 140, treatment interval ≥168 days"}},
  "data": [
    {"compound": "CO[C@H]1/C=C/O[C@@]2(C)Oc3c(C)c(O)c4c(O)c(c5c(nc6cc(C)ccn65)c4c3C2=O)NC(=O)/C(C)=C\\C=C\\[C@H](C)[C@H](O)[C@@H](C)[C@@H](O)[C@@H](C)[C@H](OC(C)=O)[C@@H]1C", "note": "[Rifaximin]", "values": [
      {"measurement": "Occurrences of Events", "setting": "[1]", "result": 12},
      {"measurement": "Survival", "setting": "[1]", "result": 1.0000},
      {"measurement": "Cumulative Occurrences of Events", "setting": "[2]", "result": 16},
      {"measurement": "Occurrences of Events", "setting": "[2]", "result": 4},
      {"measurement": "Survival", "setting": "[2]", "result": 0.9024},
      {"measurement": "Cumulative Occurrences of Events", "setting": "[3]", "result": 21},
      {"measurement": "Occurrences of Events", "setting": "[3]", "result": 5},
      {"measurement": "Survival", "setting": "[3]", "result": 0.8696},
      {"measurement": "Cumulative Occurrences of Events", "setting": "[4]", "result": 28},
      {"measurement": "Occurrences of Events", "setting": "[4]", "result": 7},
      {"measurement": "Survival", "setting": "[4]", "result": 0.8278},
      {"measurement": "Cumulative Occurrences of Events", "setting": "[5]", "result": 29},
      {"measurement": "Occurrences of Events", "setting": "[5]", "result": 1},
      {"measurement": "Survival", "setting": "[5]", "result": 0.7678},
      {"measurement": "Cumulative Occurrences of Events", "setting": "[6]", "result": 29},
      {"measurement": "Occurrences of Events", "setting": "[6]", "result": 0},
      {"measurement": "Survival", "setting": "[6]", "result": 0.7666},
      {"measurement": "Cumulative Occurrences of Events", "setting": "[7]", "result": 12},
      {"measurement": "Occurrences of Events", "setting": "[7]", "result": 12},
      {"measurement": "Survival", "setting": "[7]", "result": 1.0000},
      {"measurement": "Cumulative Occurrences of Events", "setting": "[8]", "result": 16},
      {"measurement": "Occurrences of Events", "setting": "[8]", "result": 4},
      {"measurement": "Survival", "setting": "[8]", "result": 0.9055},
      {"measurement": "Cumulative Occurrences of Events", "setting": "[9]", "result": 22},
      {"measurement": "Occurrences of Events", "setting": "[9]", "result": 6},
      {"measurement": "Survival", "setting": "[9]", "result": 0.8737},
      {"measurement": "Cumulative Occurrences of Events", "setting": "[10]", "result": 28},
      {"measurement": "Occurrences of Events", "setting": "[10]", "result": 6},
      {"measurement": "Survival", "setting": "[10]", "result": 0.8252},
      {"measurement": "Cumulative Occurrences of Events", "setting": "[11]", "result": 25},
      {"measurement": "Occurrences of Events", "setting": "[11]", "result": 1},
      {"measurement": "Survival", "setting": "[11]", "result": 0.7754},
      {"measurement": "Cumulative Occurrences of Events", "setting": "[12]", "result": 31},
      {"measurement": "Occurrences of Events", "setting": "[12]", "result": 0},
      {"measurement": "Survival", "setting": "[12]", "result": 0.7740},
      {"measurement": "Cumulative Occurrences of Events", "setting": "[13]", "result": 13},
      {"measurement": "Occurrences of Events", "setting": "[13]", "result": 13},
      {"measurement": "Survival", "setting": "[13]", "result": 1.0000},
      {"measurement": "Cumulative Occurrences of Events", "setting": "[14]", "result": 17},
      {"measurement": "Occurrences of Events", "setting": "[14]", "result": 4},
      {"measurement": "Survival", "setting": "[14]", "result": 0.9071},
      {"measurement": "Cumulative Occurrences of Events", "setting": "[15]", "result": 23},
      {"measurement": "Occurrences of Events", "setting": "[15]", "result": 6},
      {"measurement": "Survival", "setting": "[15]", "result": 0.8783},
      {"measurement": "Cumulative Occurrences of Events", "setting": "[16]", "result": 30},
      {"measurement": "Occurrences of Events", "setting": "[16]", "result": 7},
      {"measurement": "Survival", "setting": "[16]", "result": 0.8344},
      {"measurement": "Cumulative Occurrences of Events", "setting": "[17]", "result": 31},
      {"measurement": "Occurrences of Events", "setting": "[17]", "result": 1},
      {"measurement": "Survival", "setting": "[17]", "result": 0.7820},
      {"measurement": "reduction, compared with placebo, in the risk of a breakthrough overt HE episode after adjusting for prognostic factors", "setting": "first study", "result": 60, "unit": "%"},
      {"measurement": "Cumulative number of events", "setting": "[18]", "result": 13},
      {"measurement": "Number of events", "setting": "[18]", "result": 13},
      {"measurement": "Probability of no breakthrough overt HE (Kaplan-Meier event-free estimate)", "setting": "[18]", "result": 1.0000},
      {"measurement": "Cumulative number of events", "setting": "[19]", "result": 17},
      {"measurement": "Number of events", "setting": "[19]", "result": 4},
      {"measurement": "Probability of no breakthrough overt HE (Kaplan-Meier event-free estimate)", "setting": "[19]", "result": 0.9071},
      {"measurement": "Cumulative number of events", "setting": "[20]", "result": 23},
      {"measurement": "Number of events", "setting": "[20]", "result": 6},
      {"measurement": "Probability of no breakthrough overt HE (Kaplan-Meier event-free estimate)", "setting": "[20]", "result": 0.8783},
      {"measurement": "Cumulative number of events", "setting": "[21]", "result": 30},
      {"measurement": "Number of events", "setting": "[21]", "result": 7},
      {"measurement": "Probability of no breakthrough overt HE (Kaplan-Meier event-free estimate)", "setting": "[21]", "result": 0.8344},
      {"measurement": "Cumulative number of events", "setting": "[22]", "result": 31},
      {"measurement": "Number of events", "setting": "[22]", "result": 1},
      {"measurement": "Probability of no breakthrough overt HE (Kaplan-Meier event-free estimate)", "setting": "[22]", "result": 0.7820},
      {"measurement": "Cumulative number of events", "setting": "[23]", "result": 31},
      {"measurement": "Number of events", "setting": "[23]", "result": 0},
      {"measurement": "Probability of no breakthrough overt HE (Kaplan-Meier event-free estimate)", "setting": "[23]", "result": 0.7740},
      {"measurement": "proportion of subjects with breakthrough overt HE", "setting": "first study, rifaximin group", "result": 22, "unit": "%"},
      {"measurement": "subjects who experienced breakthrough overt HE episodes (of 140)", "setting": "first study, rifaximin group, 6-month period, up to Day 170", "result": 31},
      {"measurement": "time to breakthrough HE event vs placebo (FIG. 2, Kaplan Meier)", "setting": "in vivo", "result": "increased time to breakthrough HE events"}
    ]}
  ]
}
